In ChEMBL document CHEMBL1129561 (J Med Chem, 1996) one finds Max inhibition, IC50 and Ki data, which are given here for one compound.

Bounds are passed on as bounds.

Test [1] addresses T1, Progesterone receptor (Homo sapiens) (UniProt P06401).
T1 sequence (whole entry): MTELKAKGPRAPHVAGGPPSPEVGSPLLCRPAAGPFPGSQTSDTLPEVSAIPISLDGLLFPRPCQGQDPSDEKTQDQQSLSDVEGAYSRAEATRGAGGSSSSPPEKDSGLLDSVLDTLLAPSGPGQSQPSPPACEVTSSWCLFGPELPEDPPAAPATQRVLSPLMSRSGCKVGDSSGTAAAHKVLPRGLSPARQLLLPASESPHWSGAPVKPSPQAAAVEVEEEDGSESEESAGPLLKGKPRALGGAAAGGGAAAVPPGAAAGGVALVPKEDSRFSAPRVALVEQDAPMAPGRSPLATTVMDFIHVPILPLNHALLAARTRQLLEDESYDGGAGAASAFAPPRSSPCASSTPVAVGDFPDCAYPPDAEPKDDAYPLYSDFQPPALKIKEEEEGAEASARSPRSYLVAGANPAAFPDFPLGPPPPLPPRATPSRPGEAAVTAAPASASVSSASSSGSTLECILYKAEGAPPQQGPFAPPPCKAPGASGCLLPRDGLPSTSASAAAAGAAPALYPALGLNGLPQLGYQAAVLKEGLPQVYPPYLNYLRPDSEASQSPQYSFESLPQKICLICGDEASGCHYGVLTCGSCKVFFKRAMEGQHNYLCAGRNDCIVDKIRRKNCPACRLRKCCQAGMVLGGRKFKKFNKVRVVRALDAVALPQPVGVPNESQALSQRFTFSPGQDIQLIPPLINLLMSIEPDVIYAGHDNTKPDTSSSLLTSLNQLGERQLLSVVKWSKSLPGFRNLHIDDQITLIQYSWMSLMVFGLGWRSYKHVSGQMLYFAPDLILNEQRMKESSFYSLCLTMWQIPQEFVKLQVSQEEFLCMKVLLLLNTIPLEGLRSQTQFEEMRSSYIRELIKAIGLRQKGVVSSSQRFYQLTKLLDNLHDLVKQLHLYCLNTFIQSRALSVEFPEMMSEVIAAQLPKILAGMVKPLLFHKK
As to conditions: CV-1.

Test [2] addresses T2, Glucocorticoid receptor (Homo sapiens, UniProt P04150).
T2 sequence (P04150 whole entry): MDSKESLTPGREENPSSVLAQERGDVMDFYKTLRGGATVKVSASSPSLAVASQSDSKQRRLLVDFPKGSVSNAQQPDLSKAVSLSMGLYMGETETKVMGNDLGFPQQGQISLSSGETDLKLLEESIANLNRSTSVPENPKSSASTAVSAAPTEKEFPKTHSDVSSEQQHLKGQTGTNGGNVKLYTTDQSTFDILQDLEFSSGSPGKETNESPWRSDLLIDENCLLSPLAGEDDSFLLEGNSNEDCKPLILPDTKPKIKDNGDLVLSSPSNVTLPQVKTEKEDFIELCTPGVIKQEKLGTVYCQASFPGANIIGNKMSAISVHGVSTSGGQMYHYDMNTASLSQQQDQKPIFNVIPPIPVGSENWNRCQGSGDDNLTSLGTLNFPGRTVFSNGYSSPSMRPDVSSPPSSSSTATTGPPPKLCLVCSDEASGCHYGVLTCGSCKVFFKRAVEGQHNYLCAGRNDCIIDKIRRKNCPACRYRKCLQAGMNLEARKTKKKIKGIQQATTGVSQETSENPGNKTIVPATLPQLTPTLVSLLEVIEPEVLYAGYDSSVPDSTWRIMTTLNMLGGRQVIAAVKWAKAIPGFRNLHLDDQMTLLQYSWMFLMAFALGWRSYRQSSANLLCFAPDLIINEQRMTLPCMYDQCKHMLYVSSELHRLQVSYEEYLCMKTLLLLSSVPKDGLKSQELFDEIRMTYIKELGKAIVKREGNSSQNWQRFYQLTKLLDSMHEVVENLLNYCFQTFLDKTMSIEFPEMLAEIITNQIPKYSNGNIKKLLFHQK
Description: Inhibitory activity against human glucocorticoid receptor (hGR)

Another test concerns the target Estrogen receptor (Homo sapiens, UniProt Q92731+P03372).
Test [3] concerns the target T2, Glucocorticoid receptor. This is another data set of the same source.
Description: Binding affinity was determined for human glucocorticoid receptor(hGR).
The target of a further test is T3, Progesterone receptor (Homo sapiens, UniProt P06401).
T3 sequence (P06401 whole entry): T1 sequence (whole entry)

Description for Estrogen receptor: Binding affinity for human estrogen receptor

As to `C=C1C=C(C)CC(C)(C)C1Cc1ccc([N+](=O)[O-])cc1` (stereo not given), the Max inhibition in test [1] was determined as 90%. Moreover, at Glucocorticoid receptor [2], the IC50 is more than 10 µM. In addition, the Ki at Estrogen receptor is more than 10 µM; on Glucocorticoid receptor [3], 5.42 µM; at Progesterone receptor it was 53.5 nM.

A word on the IC50: it is the midpoint of a concentration-inhibition curve. A high value points to lower potency. Usually Ki stands for a measure of affinity in units of concentration, obtained from inhibition or displacement. Higher therefore signals lower affinity.
